Assay: molar heat capacity at constant pressure; mn = molality of the nth substance listed, in mol/kg
Details: 100 kPa, Liquid, DSC

O=S(=O)([O-])[O-].[Mg+2] [magnesium sulfate] + O
molar heat capacity at constant pressure [J/K/mol]
Details	m1 = 0.0546	m1 = 0.1089	m1 = 0.213	m1 = 0.526	m1 = 1.001	m1 = 1.502	m1 = 2.012	m1 = 2.495	m1 = 2.775
248.15 K	–	–	–	–	–	–	67.27	67.05	67.13
253.15 K	–	–	–	–	–	68.74	67.94	67.75	67.86
258.15 K	–	–	–	72.91	–	69.24	68.52	68.37	68.51
263.15 K	76.21	–	–	72.94	70.95	69.74	69.11	68.98	69.12
268.15 K	75.8	75.41	74.68	73	71.26	70.17	69.62	69.54	69.7
273.15 K	75.56	75.23	74.58	73.08	71.54	70.59	70.1	70.03	70.24
278.15 K	75.36	75.07	74.49	73.15	71.78	70.94	70.49	70.46	70.7
283.15 K	75.24	74.96	74.44	73.23	71.98	71.23	70.88	70.89	71.11
288.15 K	75.16	74.9	74.44	73.34	72.23	71.56	71.27	71.27	71.57
293.15 K	75.09	74.85	74.42	73.44	72.41	71.83	71.57	71.63	71.94
298.15 K	75.05	74.83	74.44	73.55	72.65	72.12	71.91	72.01	72.35

O=S(=O)([O-])[O-].[K+].[K+] [potassium sulfate] + O
molar heat capacity at constant pressure [J/K/mol]
Details	253.15 K	258.15 K	263.15 K	268.15 K	273.15 K	278.15 K	283.15 K	288.15 K	293.15 K	298.15 K
m1 = 0.1142	–	–	75.36	75.07	74.96	74.83	74.81	74.85	74.83	74.77
m1 = 0.201	–	–	74.67	74.5	74.48	74.33	74.39	74.45	74.46	74.43
m1 = 0.296	–	–	73.96	73.87	73.91	73.89	73.98	74.02	74.15	74.11
m1 = 0.415	73.75	73.5	73.32	73.32	73.42	73.4	73.55	73.65	73.77	73.77
m1 = 0.515	–	73.06	72.94	72.98	73.12	73.16	73.33	73.41	73.53	73.53
m1 = 0.606	–	–	72.64	72.74	72.9	72.92	73.14	73.21	73.33	73.33

O=S(=O)([O-])[O-].[Na+].[Na+] [sodium sulfate] + O
molar heat capacity at constant pressure [J/K/mol]
Details	253.15 K	258.15 K	263.15 K	268.15 K	273.15 K	278.15 K	283.15 K	288.15 K	293.15 K	298.15 K
m1 = 0.1012	–	76.36	75.81	75.43	75.23	75.08	74.99	74.95	74.93	74.97
m1 = 0.253	–	75.13	74.91	74.72	74.63	74.57	74.55	74.57	74.57	74.63
m1 = 0.501	–	74.17	74.13	74.09	74.11	74.15	74.2	74.28	74.32	74.4
m1 = 0.748	73.94	73.9	73.96	74.02	74.08	74.13	74.23	74.33	74.39	74.47
m1 = 1	73.97	74.01	74.15	74.21	74.31	74.39	74.49	74.62	74.68	74.76
m1 = 1.33	74.4	74.53	74.72	74.84	74.95	75.03	75.11	75.22	75.28	75.37
m1 = 1.517	–	74.71	74.81	75.03	75.22	75.33	75.52	75.65	75.77	75.8
m1 = 2.084	–	–	–	–	–	–	77.16	77.32	77.39	77.32
